Legend:
[1] = Dynamic vapor sorption (DVS) at 25° C. and RH up to 90%; type: physicochemical
Procedure: FIG. 4 depicts a DVS of Compound A monocitrate monohydrate Form A salt at 25° C. and RH up to 90%.

[2] = Slurry and solvent evaporation polymorph experiments of Compound A citrate salt (Table 9); type: physicochemical
Procedure: Based on the approximate solubility data of Compound A citrate salt, 18 polymorph experiments were started at RT with stirring (Table 9). Wet cakes from the slurry experiments were analyzed after 5 days of stirring. Wet cake XRPD patterns were checked and materials showing no pattern change were heated from RT to 50° C.
Procedure • 1) Slurry at RT: ˜35 mg citrate salt was slurried in different solvents in 4 mL vials using a magnetic stirrer at RT. The solids in slurry were characterized by XRPD after 3-5 days. • 2) Slurry at 50° C.: Slurries with no change in wet cake XRPD pattern when compared to starting material were heated from RT to 50° C. Samples were analyzed after 2-3 days of stirring.
Wet cake samples were isolated and kept at 25° C. for 2 h for drying. After drying, samples were analyzed by XRPD.

[3] = Plasma pharmacokinetics of compound A after twice daily dosing; type: in vivo
[4] = Form C slurry conditioning in EtOH/water (95/5); type: physicochemical
[5] = Form C screening experiments; type: physicochemical; details: Exp. 16: 40 mg in water 0.1 mL, RT; CL → HSL
[6] = Polymorph screening of Compound A citrate salt, form conversion (XRPD, DSC/TGA, DVS); type: physicochemical; details: drying of wet cake (Form B); presence of water (Form C)
[7] = Form C water activity study in MeCN/water; type: physicochemical
Procedure: Water activity study in MeCN/water: A water activity investigation was conducted utilizing a MeCN/water system. […] Subsequently, Form A seeds were introduced into vials with water activities between 0.01 and 0.6. […] The solids were isolated and subjected to vacuum drying at room temperature overnight.

[8] = Form C characterization and relative stability of the forms; type: physicochemical
From the text: Moreover, HNMR studies validated a 1:1 stoichiometry between the freebase and acid.

[9] = about 163 mg twice daily in combination with a CYP3A4 inhibitor (e.g., a strong CYP3A4 inhibitor)

Question: For `CCN(C(=O)c1cc(F)ccc1Oc1cncnc1N1CC2(CCN(C[C@H]3CC[C@H](NS(=O)(=O)CC)CC3)CC2)C1)C(C)C.O.O=C(O)CC(O)(CC(=O)O)C(=O)O`, which “water absorbed (DVS)” value ([1]; 25° C., from 0% to 90% relative humidity) is on record?
Answer: The value was “about 1.9%”.

Question: And the hygroscopicity ([1]; DVS at 25° C. and RH up to 90%)?
Answer: Its hygroscopicity is “not hygroscopic”.

Question: What about the Form ([2]; 1,4-dioxane/H2O (7:3), solvent evaporation) of the same compound?
Answer: The Form was “Form A (FIG. 19)”.

Question: And the Form ([2]; Propanol/H2O (7:3), solvent evaporation)?
Answer: The Form was “Form A (FIG. 19)”.

Question: And the Form ([2]; THF/H2O (7:3), solvent evaporation)?
Answer: Its Form is “Amorphous (FIG. 19)”.

Question: And the Form ([2]; slurry, 1,4-dioxane/H2O (7:3))?
Answer: The Form was “Form A (FIG. 18)”.

Question: What about the Form ([2]; slurry, 2-Me-THF, starting material a 1:1 mixture (footnote)) of the same compound?
Answer: The Form was “Form A (FIG. 18)”.

Question: What about the Form ([2]; slurry, Acetone/H2O (7:3)) of the same compound?
Answer: Its Form is “Form A (FIG. 18)”.

Question: And the Form ([2]; slurry, DCM)?
Answer: The Form was “Form A (FIG. 17)”.

Question: And the Form ([2]; slurry, EtOAc)?
Answer: The Form was “Form A (FIG. 17)”.

Question: And the Form ([2]; slurry, H2O)?
Answer: Its Form is “Form A (FIG. 18)”.

Question: What about the Form ([2]; slurry, IPAc) of the same compound?
Answer: The Form was “Form A (FIG. 18)”.

Question: And the Form ([2]; slurry, MEK)?
Answer: Its Form is “Form A (FIG. 17)”.

Question: What about the Form ([2]; slurry, MTBE) of the same compound?
Answer: Its Form is “Form A (FIG. 18)”.

Question: And the Form ([2]; slurry, MeCN)?
Answer: Its Form is “Form C (FIG. 14)”.

Question: What about the Form ([2]; slurry, MeOH or EtOH, after air dry) of the same compound?
Answer: The Form was “dry→Form A (FIG. 16)”.

Question: What about the Form ([2]; slurry, MeOH or EtOH, wet cake) of the same compound?
Answer: The Form was “Form B (Wet cake)→ air”.

Question: And the Form ([2]; slurry, Propanol/H2O (7:3))?
Answer: The Form was “Form A (FIG. 18)”.

Question: What about the Form ([2]; slurry, THF) of the same compound?
Answer: The Form was “Form A (FIG. 17)”.

Question: What about the Form ([2]; slurry, Toluene) of the same compound?
Answer: Its Form is “Form A (FIG. 17)”.

Question: And the “area under plasma concentration versus time curve from time 0 to 12 hours (AUC(0-12h)) of compound A” value [3, 9]?
Answer: Its value is “about 22610 ng·h/mL”.

Question: What about the “maximum plasma concentration (Cmax) of compound A” value [3, 9] of the same compound?
Answer: The value was “about 3220 ng/mL”.

Question: And the “area under plasma concentration versus time curve from time 0 to 12 hours (AUC(0-12h)) of compound A” value ([3]; about 276 mg twice daily)?
Answer: The value was “about 10150 ng·h/mL”.

Question: And the “maximum plasma concentration (Cmax) of compound A” value ([3]; about 276 mg twice daily)?
Answer: The value was “about 2052 ng/mL”.

Question: With `CCN(C(=O)c1cc(F)ccc1Oc1cncnc1N1CC2(CCN(CC3CCC(NS(=O)(=O)CC)CC3)CC2)C1)C(C)C.O=C(O)CC(O)(CC(=O)O)C(=O)O` (stereo not shown) [Form C] as the compound, how does the “Form conversion on slurry conditioning” value ([4]; EtOH/water (95/5), overnight stirring) read?
Answer: The value was “converted to Form A”.

Question: What about the XRPD ([4]; Exp. 1: Form C 40 mg, EtOH/water (95/5) 0.2, RT, no Form A seed, slurry overnight) of the same compound?
Answer: The XRPD was “Form A”.

Question: And the XRPD ([4]; Exp. 2: Form C, EtOH/water (95/5), RT, Form A seed 20 mg)?
Answer: Its XRPD is “Form A”.

Question: What about the “Crystal Form” value [5] of the same compound?
Answer: The value was “Form A”.

Question: What about the “stability of polymorphic form / conversion” value [6] of the same compound?
Answer: Its value is “unstable and converts to Form A in presence of water”.

Question: What about the XRPD ([7]; Exp. 1: Form C 40 mg, MeCN/water aw 0.01, RT, no Form A seed) of the same compound?
Answer: Its XRPD is “Form C”.

Question: And the XRPD ([7]; Exp. 1a: MeCN/water aw 0.01, RT, Form A seed 20 mg added)?
Answer: Its XRPD is “Form C”.

Question: And the XRPD ([7]; Exp. 2: Form C 40 mg, MeCN/water aw 0.22, RT, no Form A seed)?
Answer: The XRPD was “Form C”.

Question: What about the XRPD ([7]; Exp. 2a: MeCN/water aw 0.22, RT, Form A seed 20 mg added) of the same compound?
Answer: Its XRPD is “Form C”.

Question: And the XRPD ([7]; Exp. 3: Form C 40 mg, MeCN/water aw 0.41, RT, no Form A seed)?
Answer: Its XRPD is “Form C”.

Question: And the XRPD ([7]; Exp. 3a: MeCN/water aw 0.41, RT, Form A seed 20 mg added)?
Answer: The XRPD was “Form C”.

Question: And the XRPD ([7]; Exp. 4: Form C 40 mg, MeCN/water aw 0.59, RT, no Form A seed)?
Answer: Its XRPD is “Form C”.

Question: What about the XRPD ([7]; Exp. 4a: MeCN/water aw 0.59, RT, Form A seed 20 mg added) of the same compound?
Answer: Its XRPD is “Form C”.

Question: What about the “Form (XRPD) after addition of Form A seeds” value ([7]; MeCN/water, water activities 0.01 to 0.6, overnight stirring) of the same compound?
Answer: The value was “match with the Form C”.

Question: What about the “Form stability (XRPD of wet cake)” value ([7]; MeCN/water, water activities 0.01 to 0.8, RT, overnight stirring) of the same compound?
Answer: Its value is “remained stable”.

Question: What about the “Form (XRPD) of isolated vacuum-dried solids” value ([7]; water activity levels of 0.01-0.6) of the same compound?
Answer: The value was “consistent with Form C”.

Question: And the “Form (XRPD) of isolated vacuum-dried solids” value ([7]; water activity of 0.8)?
Answer: The value was “combination of Form C and Form A”.

Question: And the Form conversion ([2]; dried solid, upon exposure to humidity)?
Answer: The Form conversion was “converts to Form A upon exposure to humidity”.

Question: What about the “XRPD profile after heating” value ([8]; heating to 110° C.) of the same compound?
Answer: Its value is “aligned with that of Form C”.

Question: What about the “Solid recovered from water” value ([8]; overnight stirring in water at RT) of the same compound?
Answer: Its value is “Form A was recrystallized”.

Question: What about the “XRPD pattern after drying” value ([8]; post-vacuum drying at room temperature) of the same compound?
Answer: Its value is “remained unchanged”.

Question: What about the Form conversion ([8]; water and EtOH/water (95/5 v/v)) of the same compound?
Answer: Its Form conversion is “transitions to Form A”.

— patent publication US20250170132A1, “SALTS AND POLYMORPHIC FORMS OF MENIN INHIBITORS AND PHARMACEUTICAL COMPOSITIONS THEREOF” (Syndax Pharmaceuticals, Inc., priority 2023, published 2025)
